pIC50: −log10 of the molar value.
Test system: FG2
Test: Inhibition of cell adhesion in human FG2 cells assessed as decrease in cell adhesion to matrix incubated for 1 hr by crystal violet staining based assay
Type: functional
Conditions: FG2, 1 h

With `Cc1ccnc(Nc2cccc(C(=O)NCC(=O)NC[C@H](NC(=O)c3c(Cl)cccc3Cl)C(=O)O)c2)c1` the pIC50 was greater than 5.00.
In the case of `O=C(CNC(=O)c1cccc(NC2=NCC(F)(F)CN2)c1)NC[C@H](NC(=O)c1c(Cl)cc(-c2ccc3cn[nH]c3c2)cc1Cl)C(=O)O`, the pIC50 was greater than 7.00.
`O=C(CNC(=O)c1cccc(NC2=NCCCN2)c1)NC[C@H](NC(=O)c1c(Cl)cccc1Cl)C(=O)O` was tested, and the pIC50 was greater than 7.00.
Work on `CNc1cccc(C(=O)NCC(=O)NC[C@H](NC(=O)c2c(Cl)cc(-c3ccccc3)cc2Cl)C(=O)O)n1` yielded a pIC50 of 6.00.
`O=C(CNC(=O)c1cccc(NC2=NCC(O)CN2)c1)NC[C@H](NC(=O)c1c(Cl)cc(-c2ccccc2)cc1Cl)C(=O)O` (stereo partly drawn) was tested, and the pIC50 was greater than 7.00.
`N=C(N)Nc1cccc(C(=O)NCC(=O)NC[C@H](NC(=O)c2c(Cl)cc(-c3ccccc3)cc2Cl)C(=O)O)c1` showed a pIC50 greater than 7.00.
`N#C/N=C(\N)Nc1cccc(C(=O)NCC(=O)NC[C@@H](NC(=O)c2c(Cl)cccc2Cl)C(=O)O)c1` was tested, and the pIC50 was greater than 5.00.
Work on `N=C(N)Nc1ccc2ccn(CCC(=O)NC[C@H](NC(=O)c3c(Cl)cccc3Cl)C(=O)O)c2c1` yielded a pIC50 greater than 5.00.
For `O=C(CNC(=O)c1cccc(NC2=NCCCN2)c1)NC[C@H](NC(=O)c1c(Cl)cc(-c2ccccc2)cc1Cl)C(=O)O`, the pIC50 was greater than 7.00.
In the case of `C/N=C(\NC)Nc1cccc(C(=O)NCC(=O)NC[C@H](NC(=O)c2c(Cl)cc(-c3ccccc3)cc2Cl)C(=O)O)c1`, the pIC50 was 7.00.
Compound `N#Cc1cc(NC(=N)N)cc(C(=O)NCC(=O)NC[C@H](NC(=O)c2c(Cl)cc(-c3ccccc3)cc2Cl)C(=O)O)c1` has a pIC50 greater than 7.00.
`O=C(CNC(=O)c1cccc(NC2=NCCCS2)c1)NC[C@H](NC(=O)c1c(Cl)cc(-c2ccccc2)cc1Cl)C(=O)O` was tested, and the pIC50 was greater than 7.00.
With `CS(=O)(=O)c1ccc(-c2cc(Cl)c(C(=O)N[C@@H](CNC(=O)CNC(=O)c3cccc(NC(=N)N)c3)C(=O)O)c(Cl)c2)cc1` the pIC50 was greater than 7.00.
Work on `O=C(CNC(=O)c1cccc(NC2=NCC(F)CN2)c1)NC[C@H](NC(=O)c1c(Cl)cc(N2CCS(=O)(=O)CC2)cc1Cl)C(=O)O` (stereo partly drawn) yielded a pIC50 greater than 7.00.
Compound `N=C(N)Nc1cccc(C(=O)NCC(=O)NC[C@H](NC(=O)c2c(Cl)cc(N3CCOCC3)cc2Cl)C(=O)O)c1` has a pIC50 greater than 7.00.
For `N=C(N)Nc1cccc(C(=O)NCC(=O)NC[C@H](NC(=O)c2c(Cl)cccc2Cl)C(=O)O)c1`, the pIC50 was greater than 7.00.
Work on `N#C/N=C(\N)Nc1cccc(C(=O)NCC(=O)NC[C@H](NC(=O)c2c(Cl)cccc2Cl)C(=O)O)c1` yielded a pIC50 of 7.00.
`CN(CC(=O)NC[C@H](NC(=O)c1c(Cl)cc(-c2ccccc2)cc1Cl)C(=O)O)C(=O)c1cccc(NC(=N)N)c1` showed a pIC50 of 7.00.
With `O=C(CNC(=O)c1cccc(NC2=NCC(F)CN2)c1)NC[C@H](NC(=O)c1c(Cl)cc(-c2ccccc2)cc1Cl)C(=O)O` (stereo partly drawn) the pIC50 was greater than 7.00.
Work on `Cc1cccc(Cl)c1C(=O)N[C@@H](CNC(=O)CNC(=O)c1cccc(NC(=N)N)c1)C(=O)O` yielded a pIC50 greater than 6.00.
Compound `O=C(CNC(=O)c1cccc(NC2=NCC(F)CN2)c1)NC[C@H](NC(=O)c1c(Cl)cc(N2CCOCC2)cc1Cl)C(=O)O` (stereo partly drawn) has a pIC50 greater than 7.00.
With `O=C(CNC(=O)c1cccc(NC2=NCC(F)CN2)c1)NC[C@H](NC(=O)c1c(Cl)cc(-c2ccc3cn[nH]c3c2)cc1Cl)C(=O)O` (stereo partly drawn) the pIC50 was greater than 7.00.
`O=C(CNC(=O)c1cccc(NC2=NCC(F)(F)CN2)c1)NC[C@H](NC(=O)c1c(Cl)cc(-c2ccccc2)cc1Cl)C(=O)O` showed a pIC50 greater than 7.00.
For `O=C(CNC(=O)c1cccc(NC2=NCC(F)(F)CN2)c1)NC[C@H](NC(=O)c1c(Cl)cc(N2CCOCC2)cc1Cl)C(=O)O`, the pIC50 was greater than 7.00.
For `O=C(CNC(=O)c1cccc(NC2=NCCCO2)c1)NC[C@H](NC(=O)c1c(Cl)cc(-c2ccccc2)cc1Cl)C(=O)O`, the pIC50 was greater than 7.00.
`COc1ccc(Nc2cccc(C(=O)NCC(=O)NC[C@H](NC(=O)c3c(Cl)cccc3Cl)C(=O)O)c2)nc1` gave a pIC50 greater than 4.30.
`C[C@@H](NC(=O)c1cccc(NC2=NCC(F)CN2)c1)C(=O)NC[C@H](NC(=O)c1c(Cl)cc(-c2ccccc2)cc1Cl)C(=O)O` (stereo partly drawn) showed a pIC50 of 7.00.
Compound `N=C(N)Nc1ccc2c(c1)C(NCC(=O)NC[C@H](NC(=O)c1c(Cl)cccc1Cl)C(=O)O)CCO2` (stereo partly drawn) has a pIC50 greater than 6.00.

Source: ChEMBL document CHEMBL5052854, “Alpha-5 beta-1 inhibitors” (2021)
